# Measurements as given in ChEMBL document CHEMBL1146390, “Cytotoxic acylated Spermidine from a soft coral, Sinularia sp” (1997).
# Test system: P388
# Experiment: Cytotoxicity against mouse P388 cells
# Assay type: functional
# Conditions: read-out: ED50 (the source's name)
smiles,measurement,value
CCCCCCCCCC(C)/C=C/CC(=O)NCCCN(C)CCCCN(C)C (stereo unspecified),EC50,0.04 µg/mL
